Consider two compounds from PMC12221989, “One-carbon homologation of alkenes” (Nature, 2025).

A short description of series [1]: in vitro. To be noted: human. The protocol: Metabolic stability assay
Hepatic microsomal stability assays were conducted by Charles River Laboratories. Assays were performed in duplicate.
The stability of the test compound (1 µM) was measured following incubation at 37 °C with […] (0.5 mg protein/mL) in the presence of the cofactor, NADPH.
Incubates were prepared in duplicate, with aliquots removed at 0, 5, 10, 20 and 40 minutes and reactions terminated, and the compound was extracted by the addition of solvent. The disappearance of the parent compound was be monitored by LC-MS/MS and the half-life determined over the time-course of incubation. The half-life value was used to calculate the in vitro intrinsic clearance expressed as µL/min/mg protein.
Table S11. Metabolic Stability Data
Half- Half- Half- Clint Clint Mean Clint
Compound Cofactor life life Life (uL/min/mg (uL/min/mg (uL/min/mg Species (min) (min) (min) protn) n=1 protn) n=2 protn) (results)

Series [2] has as its target Human Cyclophilin A (Homo sapiens, UniProt P62937). Kind of series: PPIase TR-FRET competitive binding assay. The protocol:
PPIase TR-FRET competitive binding assay
Cyclophilin A assays were conducted by Eurofins Integrated Discovery UK Ltd (EID) to determine the inhibitory activity of the analogues against the Human Cyclophilin A in a TR-FRET Competitive Binding assay. Assays were performed in duplicate, with Kd values calculated from mean averages. […]
binding to the CypA enzyme: the CypA enzyme, tagged with a polyhistidine sequence, forms a complex with an anti-6xHis antibody labelled with a fluorescent donor, F(d), and the enzyme […]
Compounds are diluted from DMSO stocks to 50-fold the final concentration and then in assay buffer to 2-fold the final assay plate concentration. An equal volume of compound is added to the master mix in the assay plate containing the enzyme/antibody/ligand complex, with a final concentration of detergent of 0.01%. This is incubated for 30 mins at room temperature and the plate read at 2 wavelengths (A and B) to detect emission from F(d) and F(a), respectively. The ratio B/A is calculated, blank subtracted and either expressed as a percentage of the ‘no inhibitor’ control or the blank subtracted values are plotted against the inhibitor concentration in Log10 Molar and fitted using one site Ki nonlinear regression to determine the Kd. Where possible, compound Kds are determined from duplicate data points. Each assay plate is set up with ‘no enzyme’ blanks and ‘no inhibitor’ controls, which are used to determine the Z’ value for each plate.
(In general: In TR-FRET formats the signal depends on donor and acceptor labels being close together.)

In series [3] the test system is calcineurin in the presence of Cyclophilin A. The series can be described thus: Calcineurin inhibition assay (phosphatase activity in the presence of Cyclophilin A). The series is classed as biochemical. To be noted: for IC50: with CypA, calcineurin/calmodulin, RII phosphopeptide substrate, 30 °C 45 min, Malachite green A620, duplicate, IC50 from mean averages. As for the experimental part:
Calcineurin inhibition assay
Calcineurin inhibition assays were conducted by Eurofins Integrated Discovery UK Ltd (EID) to determine the effect of compounds on the activity of calcineurin in the presence of Cyclophilin A. Assays were performed in duplicate, with IC50 values calculated from mean […]
Compounds were diluted with and without immunophilin (CypA) in a 96-well plate. After addition of calcineurin/calmodulin complex, the plate was incubated at 30 °C for 10 minutes.
The addition of the RII phosphopeptide substrate initiated the reaction, and the plate was […]
The reaction was stopped by the addition of Malachite green reagent. The plate was incubated at room temperature to allow colour development (5 – 20 mins). After sufficient colour has developed, the absorbance is read at 620 nm. Blank subtracted absorbance readings are plotted against compound concentration to determine IC50 values or % inhibition at the top concentration.

For series [4], the system named is Jurkat cells. The series can be described thus: IL-2 release assay, Jurkat cells stimulated with anti-CD3/anti-CD28. The series is classed as cell-based, human. To be noted: for suppression of IL-2 secretion (in words): at high concentrations (≥1 µM), Jurkat T cells; for IL-2 levels, Mean: mean of three replicates normalized to the vehicle control. As for the experimental part: Interleukin-2 (IL-2) release assays were conducted by Eurofins Pan Labs to determine ability for the analogues to inhibit IL-2 secretion from Jurkat cells following stimulation with anti-CD3 and anti-CD28 for a period of 24 hours. Data shown are means of three replicates normalized to the vehicle control
1) Cryopreserved Jurkat cells were thawed and cultured according to established protocols for four days at 37°C, 5% CO2 prior to assay.
2) Jurkat cells were harvested and seeded into 96-well plates at a density of 2x10^5 cells/well with […]
penicillin/streptomycin, and 2 mM L-glutamine).
3) Cells were incubated at 37°C, 5% CO2 for 1 hour prior to the addition of test agents.
4) The test agents were serially diluted in DMSO to 1000X assay concentrations, then further diluted to 20X assay concentrations in culture medium. The reference inhibitor Cyclosporin A (Sigma Aldrich catalog #C1832) was diluted to 1000X assay concentrations in DMSO before dilution to 20X assay concentration in culture medium.
5) The test agents, reference inhibitor, and diluted vehicle controls were added to the cells in volumes of 10 μL in triplicate and incubated for 1 hour at 37°C, 5% CO2. […]
concentrations in culture medium. The corresponding isotype controls were diluted to 5X assay concentrations in culture medium.
7) Diluted anti-CD3/anti-CD28 was added to test agent and positive control wells in volumes of 40 μL according to the plate map. Isotype controls were added to the isotype control wells.
Culture medium was added to vehicle and unstimulated control wells. […]
assay volumes of 200 μL and control concentrations of 50 ng/mL cyclosporin A (reference inhibitor), 0.1% DMSO (vehicle), 15 μg/mL anti-CD3, and 15 μg/mL anti-CD28.
8) Cells were incubated for 24 hours at 37°C, 5% CO2.
9) At the end of the incubation period, plates were centrifuged at 200g for 10 minutes. Cell culture supernatants were collected and stored at -80°C until needed for analysis.
Data Analysis and Analyte Limits of Detection
IL-2 cytokine levels in cell culture supernatants were determined using Luminex methodology per the manufacturer’s protocol using the Human Cytokine/Chemokine/Growth Factor Panel A Kit from Millipore Sigma (catalog #HCYTA-60K) with standard ranges and limits of detection in Table S9. Levels of each cytokine were interpolated from standard curves using non-linear regression analysis in Belysa Software (Millipore Sigma). The raw data in the form of median fluorescence unit was interpolated into test concentrations (pg/mL). The interpolated data were then normalized to the vehicle control
Table S9. Analyte limit of detection
Analyte Lowest standard (pg/mL) Highest standard (pg/mL) Sensitivity (pg/mL) […]
Reported mean values (pg/mL) are from three biological replicates normalized to the vehicle […]
Fig. S5. IL-2 release by Jurkat cells following stimulation with anti-CD3/anti-CD28 and treatment with the indicated test agent for 24 hours. Error bars indicate the standard error of the […]

A short description of series [5]: Reversed-phase HPLC retention as measure of lipophilicity. To be noted: reversed-phase C18, Fig. S4-b; corroborates calculated lipophilicity.
Setting [6] is: in vitro calcineurin phosphatase activity assay.

Human Cyclophilin A, sequence (P62937 whole entry): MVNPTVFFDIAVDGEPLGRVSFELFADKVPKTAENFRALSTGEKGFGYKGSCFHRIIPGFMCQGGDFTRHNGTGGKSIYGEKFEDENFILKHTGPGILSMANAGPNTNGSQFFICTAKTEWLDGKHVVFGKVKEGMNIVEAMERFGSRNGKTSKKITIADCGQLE

Turning to `C/C=C/CCC[C@@H](C)[C@@H](O)[C@H]1C(=O)N[C@@H](CC)C(=O)N(C)CC(=O)N(C)[C@@H](CC(C)C)C(=O)N[C@@H](C(C)C)C(=O)N(C)[C@@H](CC(C)C)C(=O)N[C@@H](C)C(=O)N[C@H](C)C(=O)N(C)[C@@H](CC(C)C)C(=O)N(C)[C@@H](CC(C)C)C(=O)N(C)[C@@H](C(C)C)C(=O)N1C` [compound 22, E-bishomo Cyclosporine-A], the “Clint (uL/min/mg protn) n=1” value in series [1] is given as 81 uL/min/mg protn. The “Clint (uL/min/mg protn) n=2” value in series [1] is recorded as 78 uL/min/mg protn. The “Half-life (min) n=1” value in series [1] was determined as 17 min. Moreover, the “Mean Clint (uL/min/mg protn)” value in series [1] was 79 uL/min/mg protn. Moreover, the Kd in series [2] was 23.6 nM. Further, the “calcineurin inhibition compared with cyclosporine A (in words)” value in series [3] (setting [6]) was “retained comparable potency to cyclosporine A”. Moreover, the IC50 in series [3] was 158 nM. Also, the “suppression of IL-2 secretion (in words)” value in series [4] is “effectively suppressed IL-2 secretion”. In addition, the “IL-2 levels, Mean” value is given as 7.0 pg/mL in series [4] (test agent 0.032 µM); 1.9 pg/mL in series [4] (test agent 0.10 µM); 1.1 pg/mL in series [4] (test agent 0.32 µM); 0.9 pg/mL in series [4] (test agent 1.0 µM); 0.5 pg/mL in series [4] (test agent 3.2 µM); 0.7 pg/mL in series [4] (test agent 10 µM). The “increase of HPLC retention time upon each homologation event” value in series [5] is recorded as ~ 2.5 minutes.
`C/C=C/CC[C@@H](C)[C@@H](O)[C@H]1C(=O)N[C@@H](CC)C(=O)N(C)CC(=O)N(C)[C@@H](CC(C)C)C(=O)N[C@@H](C(C)C)C(=O)N(C)[C@@H](CC(C)C)C(=O)N[C@@H](C)C(=O)N[C@H](C)C(=O)N(C)[C@@H](CC(C)C)C(=O)N(C)[C@@H](CC(C)C)C(=O)N(C)[C@@H](C(C)C)C(=O)N1C` [compound 21, E-homo Cyclosporine-A]: the half-life at 1 µM in series [1] (both, liver microsomes) was determined as 32 min. In series [1], the “Clint (uL/min/mg protn) n=1” value is reported as 40 uL/min/mg protn, the “Clint (uL/min/mg protn) n=2” value is given as 46 uL/min/mg protn, the “Half-life (min) n=1” value is 35 min and the “Half-life (min) n=2” value came to 30 min. For the same compound, in series [1], the “Mean Clint (uL/min/mg protn)” value is 43 uL/min/mg protn. Also, the Kd in series [2] came to 76.7 nM. Further, the “decrease in phosphatase activity compared with cyclosporine A” value in series [3] (setting [6]) was 3.5 fold. For the same compound, the IC50 in series [3] is 401 nM. Further, in series [4], the “suppression of IL-2 secretion (in words)” value is on record as “effectively suppressed IL-2 secretion”. Besides, in series [4] (test agent 0.10 µM), the “IL-2 levels, Mean” value was 11.7 pg/mL. Also, in series [4] (test agent 0.32 µM), the “IL-2 levels, Mean” value was determined as 3.5 pg/mL. In addition, in series [4] (test agent 1.0 µM), the “IL-2 levels, Mean” value is on record as 1.6 pg/mL. Further, the “IL-2 levels, Mean” value in series [4] (test agent 3.2 µM) is on record as 1.1 pg/mL. The “IL-2 levels, Mean” value in series [4] (test agent 10 µM) was determined as 1.0 pg/mL. Further, in series [5], the “increase of HPLC retention time upon each homologation event” value is reported as ~ 2.5 minutes.

Broadly, the Kd is the free concentration of one partner at which half of the binding sites on the other are occupied at equilibrium, for simple one-to-one binding. What is called IC50 is the concentration that gives 50% inhibition. What is called half-life is how long it takes for the measured level to halve. Lower therefore signals rapid decline.
